Legend:
HIV-1 protease (Q7S) = biological target: T1, HIV-1 protease (Q7S) (Human immunodeficiency virus type 1 group M subtype B, UniProt P04585, Q495S); test: HIV-1 Protease RET Assay; format: biochemical; conditions: Ki, table of drawn compounds, unit inferred
T1 construct: made in house
Method: Ki's for the inhibitors of HIV-1 protease were determined using a resonance energy transfer (RET) assay. […] This enzyme is first partially purified as inclusion bodies from cell lysate. It is then solublized in 8M urea and passed through a Q-Sepharose column (Pharmacia) for further purification. To refold this protein, samples containing Q7S is dialyzed into 50 mM sodium phosphate pH 7.0, 50 mM NaCl, 10 mM DTT, and 10% glycerol.
The commercially available peptide substrate (Molecular Probes Cat. # H-2930) RE(EDANS)SQNYPIVQK(DABCYL)R is used to assess activity and Ki's. This peptide is cleaved quantitatively by HIV-1 Pr at the Tyr-Pro bond. The EDANS fluorophore absorbs at 340 nm and emits at 490 nm. The reaction is carried out in a 96 well plate in a total volume of 100 μL and is run for 12 minutes at 37 C under steady-state conditions with 5 μM substrate and 2 nM active dimer enzyme concentration. The literature value Km for this substrate and enzyme is 103+/−8 μM (See Matayoshi, et al., “Novel Fluorogenic Substrates for Assaying Retroviral Proteases by Resonance Energy Transfer,” Science 247, 954 (1990)). The buffer for this reaction is 0.1M sodium acetate pH 4.8, 1M NaCl, 1 mM EDTA, 5 mM dithiothreitol, 10% dimethyl sulfoxide and 1 mg/ml bovine serum albumin. Inhibition curves are fit using the Morrison tight binding equation.

HIV-1 = test: Cytopathic Effect (CPE) Inhibition Assay (XTT dye reduction); format: cell-based; conditions: Human immunodeficiency virus 1
Method: T-cell lines, CEM-SS, and MT-2, and viruses HIV-1 RF and HIV-1 NL4–3 (pNL4–3) were obtained from the National Institutes of Health (AIDS Research and Reference Reagent Program, Bethesda, Md.).
The ability of compounds to protect cells against HIV infection was measured by the […] dye reduction method, essentially as described (See Pauwels, R. Balzarini, J. Baba, M. Snoeck, R. Schols, D. Herdewijn, P. Desmyter, J. and De Clercq, E. 1988, “Rapid and automated tetrazolium-based colorimetric assay for the detection of anti-HIV compounds,”. J Virol Methods., 20: 309–321 and Weislow, O. S. Kiser, R. Fine, D. L. Bader, J. Shoemaker, R. H. and Boyd, M. R. 1989. “New soluble-formazan assay for HIV-1 cytopathic effects: application to high-flux screening of synthetic and natural products for AIDS-antiviral activity”. J. Natl. Cancer Inst. 81:577–586). Subject cells were infected with test virus at an moi of 0.025 to 0.819 or mock infected with medium only and added at 2×10^4 cells per well into 96 well plates containing half-log dilutions of test compounds. Six days later, 50 μl of XTT (1 mg/ml XTT tetrazolium, […] phenazine methosulfate) was added to the wells and the plate was reincubated for four hours. Viability, as determined by the amount of XTT formazan produced, was quantified spectrophotometrically by absorbance at 450 nm. Data from CPE assays were expressed as the percent of formazan produced in compound-treated cells compared to formazan produced in wells of uninfected, compound-free cells. The fifty percent effective concentration (EC50) was calculated as the concentration of compound that effected an increase in the percentage of formazan production in infected, compound-treated cells to 50% of that produced by uninfected, compound-free cells. The 50% cytotoxicity concentration (CC50) was calculated as the concentration of compound that decreased the percentage of formazan produced in uninfected, compound-treated cells to 50% of that produced in uninfected, compound-free cells. The therapeutic index was calculated by dividing the cytotoxicity (CC50) by the antiviral activity (EC50).

| SMILES | Ki (HIV-1 protease (Q7S)) [nM] | EC50 (HIV-1) [nM] |
| --- | --- | --- |
| Cc1ncc(C(=O)N[C@@H](Cc2ccccc2)[C@H](O)C(=O)N2CSC(C)(C)[C@H]2C(=O)NCc2ccccc2C)c(=O)[nH]1 | 209 | ≥ 10000 |
| Cc1ccccc1CNC(=O)[C@H]1N(C(=O)[C@@H](O)[C@H](Cc2ccccc2)NC(=O)c2cnc(C(F)(F)F)[nH]c2=O)CSC1(C)C | 1700 | ≥ 10000 |
| Cc1c(O)cccc1C(=O)N[C@@H](Cc1ccccc1)[C@H](O)C(=O)N1CSC(C)(C)C1C(=O)NCCC(C)C (stereo partly shown) | ≤ 0.1 | 72 |
| Cc1cccc(CNC(=O)[C@H]2N(C(=O)[C@@H](O)[C@H](Cc3ccccc3)NC(=O)c3cccc(O)c3C)CSC2(C)C)c1 | 1.5 | 76 |
| Cc1c(Cl)cccc1CNC(=O)[C@H]1N(C(=O)[C@@H](O)[C@H](Cc2ccccc2)NC(=O)c2cccc(O)c2C)CSC1(C)C | 0.2 | 113 |
| Cc1ccc(CNC(=O)[C@H]2N(C(=O)[C@@H](O)[C@H](Cc3ccccc3)NC(=O)c3cccc(O)c3C)CSC2(C)C)cc1 | 0.73 | 141 |
| Cc1c(O)cccc1C(=O)N[C@@H](Cc1ccccc1)[C@H](O)C(=O)N1CSC(C)(C)[C@H]1C(=O)NCc1cc(F)cc(F)c1 | 0.36 | 144 |
| COCCNC(=O)[C@H]1N(C(=O)[C@@H](O)[C@H](Cc2ccccc2)NC(=O)c2cccc(O)c2C)CSC1(C)C | 0.24 | 158 |
| Cc1cc(Cl)ccc1CNC(=O)[C@H]1N(C(=O)[C@@H](O)[C@H](Cc2ccccc2)NC(=O)c2cccc(O)c2C)CSC1(C)C | 0.26 | 207 |
| Cc1c(O)cccc1C(=O)N[C@@H](Cc1ccccc1)[C@H](O)C(=O)N1CSC(C)(C)[C@H]1C(=O)NCc1cc(F)c(F)cc1F | 0.17 | 289 |
| Cc1c(O)cccc1C(=O)N[C@@H](Cc1ccccc1)[C@H](O)C(=O)N1CSC(C)(C)[C@H]1C(=O)NCc1ccc(F)c(F)c1F | 0.11 | 334 |
| Cc1ccccc1CNC(=O)[C@H]1N(C(=O)[C@@H](O)[C@H](Cc2ccccc2)NC(=O)c2ccccc2Cl)CSC1(C)C | 0.2 | 585 |
| Cc1ccc(C(=O)N[C@@H](Cc2ccccc2)[C@H](O)C(=O)N2CSC(C)(C)[C@H]2C(=O)CCC(F)(F)F)c(C)c1O | 9.6 | 723 |
| Cc1c(O)cccc1C(=O)N[C@@H](Cc1ccccc1)[C@H](O)C(=O)N1CSC(C)(C)[C@H]1C(=O)NCCC(C)(C)C | 4.7 | 1060 |
| Cc1c(O)cccc1C(=O)N[C@@H](Cc1ccccc1)[C@H](O)C(=O)N1CSC(C)(C)[C@H]1C(=O)NCc1cccc(OCC(C)C)c1 | 1.1 | 1110 |
| Cc1c(O)cccc1C(=O)N[C@@H](Cc1ccccc1)[C@H](O)C(=O)N1CSC(C)(C)[C@H]1C(=O)c1ccccc1 | 2.5 | 1220 |
| Cc1cc(C(=O)N[C@@H](Cc2ccccc2)[C@H](O)C(=O)N2CSC(C)(C)[C@H]2C(=O)NCc2ccccc2C)no1 | 2.6 | 1310 |
| COc1cccc(CNC(=O)[C@H]2N(C(=O)[C@@H](O)[C@H](Cc3ccccc3)NC(=O)c3ccc(C)c(O)c3C)CSC2(C)C)c1 | 3.7 | 1330 |
| Cc1ccccc1CNC(=O)[C@H]1N(C(=O)[C@@H](O)[C@H](Cc2ccccc2)NC(=O)c2csc(N)n2)CSC1(C)C | 2.3 | 1380 |
| Cc1c(O)cccc1C(=O)N[C@@H](Cc1ccccc1)[C@H](O)C(=O)N1CSC(C)(C)[C@H]1C(=O)NCc1ccc(C(F)(F)F)cc1F | 11.1 | 1400 |
| CCC/C=C/CNC(=O)[C@H]1N(C(=O)[C@@H](O)[C@H](Cc2ccccc2)NC(=O)c2cccc(O)c2C)CSC1(C)C | 2.6 | 1420 |
| COc1ccccc1C(=O)N[C@@H](Cc1ccccc1)[C@H](O)C(=O)N1CSC(C)(C)[C@H]1C(=O)NCc1ccccc1C | 2.1 | 1490 |
| Cc1ccccc1CNC(=O)[C@H]1N(C(=O)[C@@H](O)[C@H](Cc2ccccc2)NC(=O)N2CCSC2)CSC1(C)C | 14 | 1510 |

— US7169932B2 (priority 2001, dated 2007)
